Assay [1] relates to HT29 = human colon carcinoma. Description: Cytotoxicity against HT29 cells. Type of assay: cell-based.
Assay [2] relates to CV-1 = monkey kidney cells. Description: Cytotoxicity against CV-1 cells. Type of assay: cell-based.
The target of the next assay is RNA polymerase. Description: Enzyme inhibition: RNA polymerase inhibition. Type of assay: biochemical.
Another assay concerns RNA synthesis. Description: Antimetabolism: RNA synthesis inhibition. Type of assay: cell-based.
The next assay has as its target DNA polymerase. The assay can be described thus: Enzyme inhibition: DNA polymerase inhibition. Format: biochemical.
In another assay the test system is Bacillus subtilis. Description: Antimicrobial activity against Bacillus subtilis (MIC, disc). Format: cell-based. To be noted: Bacillus subtilis.
Assay [3] concerns P388 = murine lymphoma cells. Description: Cytotoxicity against P388 cells. Type of assay: cell-based.
For assay [4], the system named is P388 murine leukemia, B16 melanoma, Lewis lung carcinoma, and several human tumor xenograft models in mice. To be noted: human tumor xenografts in mice; cited from earlier work. In general terms: Xenograft models place foreign cells or tissue in a host animal.
In assay [5] the test system is L1210 = murine lymphoma cells. Description: Cytotoxicity against L1210 cells. Format: cell-based.
Assay [6] deals with A549 = human lung carcinoma. Description: Cytotoxicity against A549 cells. Type of assay: cell-based.
A further assay relates to protein synthesis. The assay can be described thus: Antimetabolism: protein synthesis inhibition. Format: cell-based.
The test system of a further assay is B16 melanoma. Conditions: evaluated by the NCI; cited from earlier work.
For the next assay, the system named is DNA synthesis. Description: Antimetabolism: DNA synthesis inhibition. Format: cell-based.
A further assay concerns MEL28 = human melanoma. The assay can be described thus: Cytotoxicity against MEL28 cells. Format: cell-based.

Here are results for one compound from patent US20090247533A1, “Ecteinascidins” (The Board of Trustees of the University of Illinois, priority 1994, published 2009).

A value given as a limit tells only on which side of the number the result lay.

With `COc1cc2c(cc1O)CCN[C@]21CS[C@@H]2c3c(OC(C)=O)c(C)c4c(c3[C@H](COC1=O)N1[C@@H]2[C@@H]2N[C@@H](Cc3cc(C)c(OC)c(O)c32)[C@@H]1O)OCO4` [Et 729], the “HT29 IC50” value in assay [1] is 0.5 ng/mL. Further, in assay [2], the “CV-1 IC50” value is 2.5 ng/mL. Further, at RNA polymerase, the “RNAp (RNA polymerase inhibition) IC50” value was 50 ng/mL. Moreover, the “RNA (RNA synthesis inhibition) IC50” value in the assay on RNA synthesis turned out to be 20 ng/mL. In addition, the “DNAp (DNA polymerase inhibition) IC50” value at DNA polymerase is 1500 ng/mL. The “B.s. MIC” value in the assay with Bacillus subtilis amounted to 0.08 μg/disc. In addition, the “P388 IC50” value in assay [3] was determined as 0.2 ng/mL. Further, the efficacy in vivo entry in [4] is reported as “promising efficacy in vivo”. For the same compound, the “L1210 IC50” value in assay [5] is reported as less than 1 ng/mL. Moreover, the “A549 IC50” value in assay [6] is 0.2 ng/mL. The “Prot. (protein synthesis inhibition) IC50” value with protein synthesis was greater than 1000 ng/mL. For the same compound, in the assay on B16 melanoma, the “survivors 60 days following infection with B16 melanoma” value is recorded as 8 of 10. The “DNA (DNA synthesis inhibition) IC50” value with DNA synthesis turned out to be 200 ng/mL. Besides, the “MEL28 IC50” value in the assay with MEL28 = human melanoma is on record as 5.0 ng/mL.
